{"source": "patent US20260209256A1", "about": "“PHOSPHINE OXIDE-BASED PHOTOINITIATORS” (Arkema France, priority 2022, published 2026)", "key": {"[1]": {"assay": "Curing experiments: belt cure under LED lamp at 395 nm", "settings": "LED 395 nm, 50 μm film", "procedure": "Testing Protocol: Formulations were prepared by combining all materials in the given proportions and then stirring at 30-40° C. until the samples were fully homogeneous; the formulations were then allowed to cool to 20° C. All components remained fully dissolved in the resin formulations throughout these experiments. For all experiments, the formulations were cured on Leneta Form 3N-31 gloss finish paper at 50 μm film thickness using a belt-cure instrument; the films were prepared using a K-bar. All films were then cured under an LED lamp at 395 nm at a belt speed of 10 m/min. The cure speed for each formulation was calculated from the number of passes under each lamp required to give complete surface cure (determined when light scratching of the surface of the film no longer left a mark) and depth cure (determined using the ‘thumb-twist’ test, where no visible mark is made when a thumb is pressed down firmly onto the coating with a twisting motion), and from the belt speed; the calculated cure speed (in m/min) is given in Tables 1A-1B as an average of 3 runs. Where cure speed was less than 0.3 m/min, the result was recorded as ‘No cure’."}, "[2]": {"assay": "UV PhotoDSC of nail gel top coat compositions", "procedure": "Photo Differential Scanning Calorimetry (PhotoDSC) was used to measure the cure speed, heat generation during cure and heat flow measurements for the UV curable top coat compositions containing TPO, TPO-L and Photoinitiator 9 as shown in Table 2C below. PhotoDSC was measured using a TA instruments Q2000 DSC equipped with an EFOS A4000 Acticure UVNisible light curing system containing a 100 W Mercury lamp light source. The UV-light intensity was measured out of the sample window using an EIT UV power puck II radiometer prior to the experiment. Sample preparation for PhotoDSC occurred as follows: A Tzero aluminum reference pan and a Tzero aluminum sample pan were weighed. One drop of formulation (about 5-15 milligrams) was placed at the center of the sample pan and the mass was recorded. The two pans were placed in the DSC apparatus. The system was stabilized at 25° C. for 30 seconds under a continuous stream of nitrogen. An isothermal experiment was initiated and sample and reference pan were flooded with UVNisible light (320 to 450 nm, 190-210 mJ/cm^2) for two minutes. An exothermic peak, due to crosslinking, is recorded during the experiment. The cure speed is measured by determining the time it takes to reach the peak max while the lamp is turned on. The area under the peak is recorded as the heat flow value (J/g). The max temperature during cure is recorded as the temperature shown at the maximum peak during cure."}, "[3]": {"assay": "LED-DSC test of 3D printing curable compositions", "procedure": "A photo differential scanning calorimetry (DSC) with a customized 405 nm LED lamp setup was used. All photopolymerization rate measurement were performed using a Q2000 DSC unit from TA Instruments. A lamp holder for the DSC unit can be customized and printed from Arkema N3xtDimention® engineered resin N3D-TOUGH784 in order to ensure precisely fit of a 405 nm lamp AccuCure ULM-2-405 from Digital Light Labs. The LED light was automatically triggered by connecting the “Event” outlet of the DSC unit to an Accure Photo Rheometer Ultraviolet Illumination & Measurement System. LED light exposure can be programed by using “Event” on or off from Photo DSC software, but the intensity of light can be preset from the Accure Photo Rheometer Ultraviolet Illumination & Measurement System. For measurement, approximate 10 mg liquid sample was placed at the center of a T130522 DSC Tzero pan, cured by exposing it to 50 mW/cm^2 of 405 nm LED light for 0.3 minutes under a 50 mL/min N2 flow rate and 40° C. The resulting heat flow (W/g) curve was collected to analyze maximum heat flow peak value and maximum peak time, and listed in Table 3A."}, "[4]": {"assay": "FTIR test: acrylate conversion", "settings": "FIG. 2A", "procedure": "A Fourier Transform Infrared (FTIR) with an Attenuated Total Reflection (ATR) setup was used. All polymerization rate measurements were performed using Nicolet iS50 FT-IR Spectrometer from Thermo Scientific, equipped with a standard DLaTGS detector. A lamp holder for the ART platform of FTIR unit can be customized and printed from Arkema N3xtDimention® engineered resin N3D-TOUGH784 in order to ensure precisely fit of a 405 nm lamp AccuCure ULM-2-405 from Digital Light Labs. On the bottom of this lamp holder, a dry air channel is built in to allow air uniformly blowing over sample surface, the gas flow rate can be controlled over a rotameter. The LED light was manually triggered by Ultraviolet illumination & Measurement System. […] Measurements of acrylate conversion were taken at the height under the reference peak around 1720 cm^−1; the acrylate peak at approximately 1407 cm^−1 was also measured. Peak height was determined using the baseline technique where a baseline is chosen to be the two lowest points between 600 cm^−1 and 1800 cm^−1. The height under the peak and above the baseline was then determined. […]\nThe ratio of the acrylate height to the reference peak height were determined for both the liquid and the cured samples. Degree of cure or conversion, expressed as percentage reacted acrylate, was calculated from the equation below: […]"}, "[5]": {"assay": "Stability by LED-FTIR analysis at 405 nm (accelerated ageing)", "format": "physicochemical", "settings": "photoinitiator or formulation aged at 60° C. for 1 week, 10 mW, dry air, FIG. 6A/6B", "procedure": "The cure speed of aged samples comprising Photoinitiator 11 vs Speedcure TPO was acquired in experimental formulations using LED-FTIR analysis. The photoinitiator was aged at 60° C. for 1 week, then made into formulation and directly compared to ageing the photoinitiator in formulation at 60° C. for 1 week.\nLED FT-IR Analysis was conducted on a ThermoScientific Nicolet iS50 Ft-IR Spectrometer with a standard DLaTGS detector 2. A film applicator was used to spread the applied sample into a film of 3 mils thickness. For analysis all the spectra are normalized by using the 1727 cm^−1 (—C═O stretch) peak as reference. For acrylic monomers, the decrease in peak height of C═C peak at 1407 cm^−1 was used for measuring conversion versus time The degree of conversion of the monomers was calculated by measuring the peak height. The stability results for the formulations comprising Speedcure TPO are shown in FIG. 6A and stability the results for the formulations comprising Photoinitiator 11 are shown in FIG. 6B."}, "[6]": {"assay": "Stability in inkjet formulations, mercury curing", "format": "physicochemical", "settings": "cyan ink, same phosphine oxide w/w %, 6 μm film; FIG. 7A", "procedure": "Resins and photoinitiators were mixed at the target weight ratio before gently stirring using magnetic stirrers at 30-40° C. for 3 hours. Solubility was checked by eye to confirm full dissolution. Curing results at target film weight, were checked by lightly scratching for surface curing and compressed thumb twist for depth curing. Average curing speed was calculated using the belt speed divided by the passing number recorded when full cured resin was achieved. For practical purposes, curing speed less than 0.3 m/min was categorised as “No cure”. Duplicate curing was performed for the same formulation, average curing speed was used for final comparisons.\nCure speed of samples was checked at T=0, then samples were aged in an oven at 60° C. for 2 weeks before reassessing cure speed. Comparison of the initial cure speed vs the cure speed of aged samples was directly compared. Lamp system: the mercury lamp was at an intensity of 50%, with belt speed 10 m/min The LED lamp was set at 395 nm, with a lamp intensity of 70%, at belt speed 20 m/min"}, "[7]": {"assay": "Stability in inkjet formulations, LED curing 395 nm", "format": "physicochemical", "settings": "cyan ink, 6 μm film; FIG. 7B", "procedure": "Resins and photoinitiators were mixed at the target weight ratio before gently stirring using magnetic stirrers at 30-40° C. for 3 hours. Solubility was checked by eye to confirm full dissolution. Curing results at target film weight, were checked by lightly scratching for surface curing and compressed thumb twist for depth curing. Average curing speed was calculated using the belt speed divided by the passing number recorded when full cured resin was achieved. For practical purposes, curing speed less than 0.3 m/min was categorised as “No cure”. Duplicate curing was performed for the same formulation, average curing speed was used for final comparisons. […] Comparison of the initial cure speed vs the cure speed of aged samples was directly compared. […] Film weights were 6 μm."}, "[8]": {"settings": "8% w/w photoinitiator in 7:3 w/w bisphenol A ethoxylate diacrylate/tripropylene glycol diacrylate, average of 3 runs"}, "[9]": {"settings": "same active phosphine oxide concentration (given Wt %) in 7:3 w/w bisphenol A ethoxylate diacrylate/tripropylene glycol diacrylate"}, "[10]": {"settings": "compositions containing 2 wt % photoinitiator"}, "[11]": {"settings": "compositions containing 4 wt % photoinitiator"}}, "data": [{"smiles": "Cc1cc(C)c(C(=O)P(=O)(c2ccccc2)c2ccccc2)c(C)c1", "note": "[SpeedCure TPO, 2,4,6-trimethylbenzoyl diphenyl phosphine oxide]", "values": [{"measurement": "Cure speed (m/min) Depth cure", "setting": "[1]; [8]", "value": 5.6, "unit": "m/min"}, {"measurement": "Cure speed (m/min) Surface cure", "setting": "[1]; [8]", "value": 2.2, "unit": "m/min"}, {"measurement": "Cure speed (m/min) Depth cure", "setting": "[1]; [9]", "value": 5.6, "unit": "m/min"}, {"measurement": "Cure speed (m/min) Surface cure", "setting": "[1]; [9]", "value": 2.2, "unit": "m/min"}, {"measurement": "time to peak max", "setting": "[2]; [10]", "value": 0.5, "unit": "min"}, {"measurement": "time to peak max", "setting": "[2]; [11]", "value": 0.06, "unit": "min"}, {"measurement": "cure speed in formulations at the same equivalent of phosphine oxide", "setting": "[3]", "value": "Precursor 4<Photoinitiator 6<TPO"}, {"measurement": "cure speed in formulations at the same equivalent of phosphine oxide", "setting": "[4]", "value": "Precursor 4<Photoinitiator 6<TPO"}, {"measurement": "stability: cure speed after accelerated ageing", "setting": "[5]", "value": "larger reduction in cure speed than Photoinitiator 11"}]}, {"smiles": "CCCCNC(=O)/C=C\\C(=O)c1c(C)cc(C)c(C(=O)P(=O)(c2ccccc2)c2ccccc2)c1C", "note": "[Precursor 3]", "values": [{"measurement": "Cure speed (m/min) Depth cure", "setting": "[1]; [8]", "value": 1.8, "unit": "m/min"}, {"measurement": "Cure speed (m/min) Surface cure", "setting": "[1]; [8]", "value": "No cure (Where cure speed was less than 0.3 m/min, the result was recorded as ‘No cure’)"}, {"measurement": "Cure speed (m/min) Depth cure", "setting": "[1]; [9]", "value": 1.8, "unit": "m/min"}, {"measurement": "Cure speed (m/min) Surface cure", "setting": "[1]; [9]", "value": "No cure (Where cure speed was less than 0.3 m/min, the result was recorded as ‘No cure’)"}]}, {"smiles": "CCCCNC(=O)C(CC(=O)c1c(C)cc(C)c(C(=O)P(=O)(c2ccccc2)c2ccccc2)c1C)N1CCN(C)CC1", "note": "(single isomer, unassigned) [Photoinitiator 4]", "values": [{"measurement": "Cure speed (m/min) Depth cure", "setting": "[1]; [8]", "value": 5.0, "unit": "m/min"}, {"measurement": "Cure speed (m/min) Surface cure", "setting": "[1]; [8]", "value": "No cure (Where cure speed was less than 0.3 m/min, the result was recorded as ‘No cure’)"}, {"measurement": "Cure speed (m/min) Depth cure", "setting": "[1]; [9]", "value": 5.0, "unit": "m/min"}, {"measurement": "Cure speed (m/min) Surface cure", "setting": "[1]; [9]", "value": 1.6, "unit": "m/min"}]}, {"smiles": "Cc1cc(C)c(C(=O)P(=O)(C(=O)c2c(C)cc(C)cc2C)c2ccccc2)c(C)c1", "note": "[Speedcure BPO, bis-(2,4,6-trimethylbenzoyl)phenyl phosphine oxide]", "values": [{"measurement": "initial curing performance under mercury lamp", "setting": "[6]", "value": "closely followed"}, {"measurement": "initial curing under 395 nm LED", "setting": "[7]", "value": "best curing results"}]}, {"smiles": "CCCCNC(=O)C(CC(=O)c1c(C)cc(C)c(C(=O)P(=O)(c2ccccc2)c2ccccc2)c1C)N1CCOCC1", "note": "(single isomer, unassigned) [Photoinitiator 3]", "values": [{"measurement": "Cure speed (m/min) Depth cure", "setting": "[1]; [8]", "value": 3.9, "unit": "m/min"}, {"measurement": "Cure speed (m/min) Surface cure", "setting": "[1]; [8]", "value": "No cure (Where cure speed was less than 0.3 m/min, the result was recorded as ‘No cure’)"}, {"measurement": "Cure speed (m/min) Depth cure", "setting": "[1]; [9]", "value": 5.0, "unit": "m/min"}, {"measurement": "Cure speed (m/min) Surface cure", "setting": "[1]; [9]", "value": 1.7, "unit": "m/min"}]}, {"smiles": "CCOP(=O)(C(=O)c1c(C)cc(C)cc1C)c1ccccc1", "note": "(stereo not shown) [Speedcure TPO-L, Ethyl (2,4,6-trimethylbenzoyl)phenyl phosphinate]", "values": [{"measurement": "time to peak max", "setting": "[2]; [10]", "value": 0.06, "unit": "min"}, {"measurement": "time to peak max", "setting": "[2]; [11]", "value": 0.06, "unit": "min"}]}]}
